According to ChEMBL document CHEMBL2363022, “Malaria Box Schistosomiasis Screening Data” (2013):

Legend:
Assay type in all cases: functional
Design in all cases: scale not given here
Schistosoma mansoni [1] = test system: Schistosoma mansoni
Schistosoma mansoni [2] = test system: Schistosoma mansoni; remark: listed apart in the source
Schistosoma mansoni [3] = test system: Schistosoma mansoni; remark: listed apart in the source

SMILES	Toxicity (Schistosoma mansoni [1])	Toxicity (Schistosoma mansoni [2])	Toxicity (Schistosoma mansoni [3])
CCOc1ccc(-n2cc(-c3ccccc3)c3c(SCc4cc(C)ccc4C)ncnc32)cc1	0	0	0
Cc1ccc(OCCCCCCNCCO)c(C)c1	0	0	0
O=C(CCl)NCCOc1ccc(Cl)cc1Cl	0	3	4
O=C(NC1CCN(Cc2ccccc2)CC1)c1cc(C(=O)NC2CCN(Cc3ccccc3)CC2)cc(C(=O)NC2CCN(Cc3ccccc3)CC2)c1	0	0	0
CCOC(=O)c1cnc2c(C)cccc2c1Nc1ccc(C(C)=O)cc1	0	0	0
O=C(Cc1ccccc1)NC(c1ccc(Cl)cc1)c1c(O)ccc2ccccc12 (configuration not stated)	2	1	2
Cc1cc(NC(=O)C2c3ccccc3C(=O)N(CC(C)C)C2c2cccs2)no1 (configuration not stated)	0	0	0
COc1ccccc1CNC(=O)CCn1c(=O)[nH]c2ccsc2c1=O	0	0	0
O=C(NNc1cc(N2CCCC2)nc(N2CCCC2)n1)c1ccccc1	1	0	4
CCOc1ccc2nc(C)cc(Nc3ccc(Br)cc3)c2c1	2	4	4
CN1c2ccccc2N(C)C1c1ccc2c(c1)OCO2	1	0	0
Cn1c(=O)c2cc(C(=O)NCCCN3CCCCCC3)sc2c2ccccc21	0	0	0
CCN(CC)CCNc1ccnc2cc(Cl)ccc12	0	0	0
COc1cccc(NC(=O)Cn2c(C)c(C#N)c3ccccc32)c1	0	0	0
Cc1ccccc1OCCSc1nc2ccc(NC(=O)c3cccs3)cc2s1	0	0	0
Cc1cccc(N2C(=O)C3C(C2=O)C2(c4ccccc4)C(=O)C3(c3ccccc3)C(c3ccc4c(c3)OCO4)=C2c2ccc3c(c2)OCO3)c1 (configuration not stated)	0	0	0
CCc1c(C)c(=N)c2ccccc2n1C.I	0	0	0
O=C(Nc1ccc(C23CC4CC(CC(c5ccccc5)(C4)C2)C3)cc1)c1cccs1	2	2	2
CCOC(=O)c1c(NC(=O)c2ccccc2)sc2c(O)c(CN(CC)CC)ccc12	0	0	0
CCOc1cc2c(cc1OCC)C(c1cc(C)c(O)c(C)c1)NCC2.Cl (configuration not stated)	2	0	0
COc1ccc(-c2nonc2NC(=O)c2cccc(Cl)c2)cc1OC	0	0	0
Cc1ccc(Cl)cc1N1CCN(CCCNC(=O)C2CCN(c3nc4ccccc4[nH]3)CC2)CC1	0	0	3
CCCCOC(=O)c1ccc(Nc2cc(C)nc3ccc(OC)cc23)cc1	2	0	4
CCN(Cc1ccccc1)C1CCN(Cc2cc(Br)ccc2O)CC1.O=C(O)C(=O)O	0	0	0
OC1=C2C(=Nc3ccccc3SC2c2ccc(Br)cc2)c2ccccc21 (configuration not stated)	1	0	0

SMILES	Toxicity (Schistosoma mansoni [1])	Toxicity (Schistosoma mansoni [2])	Toxicity (Schistosoma mansoni [3])
Oc1c2c(nc3cc(-c4ccccc4)nn13)CCCC2	0	0	0
Cl.Cn1c(=O)n(C)c2cc(CNCCNc3ccnc4cc(Cl)ccc34)ccc21	0	1	1
CCOC(=O)c1cn(CC)c2cc(N(C)CCc3ccc(OC)c(OC)c3)c(F)cc2c1=O	0	0	0
CCOC(=O)C1CCN(C(=O)CN2C(=O)c3ccccc3C2c2c[nH]c3ccccc23)CC1 (configuration not stated)	0	0	0
O=C1c2ccccc2C2=Nc3ccccc3SC(c3cccc(F)c3)C12 (configuration not stated)	1	1	1
Cc1ccc2nc(C)cc(Nc3cccc(C(F)(F)F)c3)c2c1.Cl	2	2	3
c1ccc2cc3c(Nc4ccc(N5CCOCC5)cc4)ccnc3cc2c1	2	4	4
CCOc1cccc2sc(N(Cc3cccnc3)C(=O)C3CCCCC3)nc12	0	0	0
CCc1ccc(Nc2cc(C)c3ccc(O)cc3n2)cc1.Cl	2	2	3
COc1ccc(C2c3ccc4ccccc4c3Oc3ncn(CCCn4ccnc4)c(=N)c32)cc1OC (configuration not stated)	0	0	0
O=C(Nc1ccc(CN2CCOCC2)cc1)c1ccc(-c2cc(Cl)ccc2Cl)o1	0	2	0
Br.CCn1c2c(c(=N)c3c1CCC3)CCCC2	0	0	0
N=c1c2ccccc2nnn1-c1cccc(C(F)(F)F)c1	0	0	0
CCCCC(O)(c1ccc(Cl)cc1)C(CN1CCOCC1)c1ccc(Cl)cc1.Cl (configuration not stated)	0	0	4
Cc1ccnc(NC(c2cccc(OCc3ccccc3)c2)c2ccc3cccnc3c2O)c1 (configuration not stated)	1	4	4
CC(C)(C)c1ccc(O)c(CNC2CCCCC2)c1	0	0	0
Brc1ccc(Nc2nc3ccccc3nc2Nc2ccc(Br)cc2)cc1	3	4	4
O=C(Nc1ccc(N2CCN(Cc3ccccc3)CC2)cc1)c1cccs1.O=C(O)C(F)(F)F	0	0	0
COc1ccccc1N1CCN(C(CNS(=O)(=O)c2ccc(Cl)cc2)c2cccnc2)CC1 (configuration not stated)	0	0	0
CCCCCC(=O)N1c2ccccc2N=C2CC(c3ccc(OC)c(OC)c3)CC(O)=C2C1c1ccc(C(F)(F)F)cc1 (configuration not stated)	0	0	0
O=C(Nc1ccccc1O)c1ccc(-c2ccc(Cl)cc2Cl)o1	0	0	0
CCN(CC)c1ccc(NC(=O)c2cccs2)cc1	0	0	0
CC1CCN(Cc2c(O)ccc3cc(-c4nc5ccccc5s4)c(=O)oc23)CC1	0	0	0
COc1ccc(-c2c(C)nn3c(N)c(C#N)cnc23)cc1OC	1	1	1
